Experimental data published in publication PMC6259751, “Investigating Spectrum of Biological Activity of 4- and 5-Chloro-2-hydroxy-N-[2-(arylamino)-1-alkyl-2-oxoethyl]benzamides” (Molecules, 2011).
Values after ≈ are worked out from the molar mass of the structure shown. Values joined by “and” are separate entries in the source; they are usually repeats but may differ in a detail not shown here. Identical values can stand only once. Like-named read-outs stand apart in the source and are kept apart here.

Experiments:
[1] = Lipophilicity determination by RP-HPLC (capacity factor k / log k); format: physicochemical; details: C18 column, MeOH 70% / H2O 30%, isocratic
Method: Hydrophobicities (log P/Clog P) of compounds 8 and 9 were calculated using two commercially available programs (ChemOffice Ultra 10.0 and ACD/LogP) and measured by means of RP-HPLC determination of capacity factors k with subsequent calculation of log k. The procedure was performed under isocratic conditions with methanol as an organic modifier in the mobile phase using an end-capped non-polar C18 stationary RP column. The results are shown in Table 1 and illustrated in Figure 1.
A Waters Alliance 2695 XE HPLC separation module and a Waters Photodiode Array Detector 2996 (Waters Corp., Milford, MA, USA) were used. A Symmetry® C18 5 μm, 4.6 × 250 mm, Part No. WAT054275 (Waters Corp., Milford, MA, USA) chromatographic column was used. The HPLC separation process was monitored by Empower™ 2 Chromatography Data Software, Waters 2009 (Waters Corp., Milford, MA, USA). A mixture of MeOH p.a. (70%) and H2O-HPLC – Mili-Q Grade (30%) was used as a mobile phase. The total flow of the column was 1.0 mL/min, injection volume, 30 μL, column temperature, 30 °C and sample temperature, 10 °C. The detection wavelength of 210 nm was chosen. The KI methanolic solution was used for the dead time (tD) determination. Retention times (tR) were measured in minutes. The capacity factors k were calculated using the Empower™ 2 Chromatography Data Software according to formula k = (tR - tD)/tD, where tR is the retention time of the solute, whereas tD denotes the dead time obtained using an unretained analyte. Log k, calculated from the capacity factor k, is used as the lipophilicity index converted to log P scale.

[2] = system: Trichophyton mentagrophytes 445; assay: In vitro antifungal susceptibility testing (broth microdilution); format: cell-based
[3] = system: Candida tropicalis 156; assay: as above; format: cell-based; details: M27-A2 for yeasts, IC80 value
[4] = system: Mycobacterium tuberculosis MTB CNCTC My 331/88; assay: In vitro antimycobacterial evaluation; format: cell-based; details: IC90 value
[5] = system: Enterococcus sp. J 14365/08; assay: In vitro antibacterial susceptibility testing (broth microdilution); details: read-out: MIC EF
[6] = system: Mycobacterium avium MA CNCTC My 330/88; assay: In vitro antimycobacterial evaluation; format: cell-based; details: IC90 value
[7] = system: Staphylococcus aureus CCM 4516/08; assay: In vitro antibacterial susceptibility testing (broth microdilution); details: read-out: MIC SA
[8] = system: Mycobacterium kansasii MK CNCTC My 235/80; assay: In vitro antimycobacterial evaluation; format: cell-based; details: IC90 value
[9] = system: Staphylococcus epidermidis H 6966/08; assay: In vitro antibacterial susceptibility testing (broth microdilution); details: read-out: MIC SE
[10] = system: methicilin resistant Staphylococcus aureus H 5996/08; assay: as above
[11] = 72h, M38-A for moulds, IC50 value, read-out: MIC TM
[12] = 120h, M38-A for moulds, IC50 value, read-out: MIC TM

Structure (SMILES)	log k [1]	MIC [2, 11]	MIC [2, 12]	MIC ([3]; 24h)	MIC ([3]; 48h)	MIC ([4]; 14h)	MIC ([4]; 21h)	MIC ([5]; SP.J14365/08, 24 h)	MIC ([5]; SP.J14365/08, 48 h)	MIC ([6]; 14h)	MIC ([6]; 21h)	MIC ([7]; CCM4516, 24 h)	MIC ([7]; CCM4516, 48 h)	MIC ([8]; 14h)	MIC ([8]; 21h)	MIC ([9]; H6966/08, 24 h)	MIC ([9]; H6966/08, 48 h)	MIC ([10]; MRSA, 24 h, read-out: MIC MRSA)	MIC ([10]; MRSA, 48 h, read-out: MIC MRSA)	further results
C[C@@H](NC(=O)c1cc(Cl)ccc1O)C(=O)Nc1cccc(Cl)c1 [8c, 5-chloro-N-{(1R)-2-[(3-chlorophenyl)amino]-1-methyl-2-oxoethyl}-2-hydroxybenzamide]	0.41 and 0.4153	0.49 µM (≈ 0.173 µg/mL)	0.49 µM (≈ 0.173 µg/mL)	31.2 µM (≈ 11 µg/mL)	125 µM (≈ 44.2 µg/mL)	62.5 µM (≈ 22.1 µg/mL)	125 µM (≈ 44.2 µg/mL)	> 500 µM	> 500 µM	125 µM (≈ 44.2 µg/mL)	250 µM (≈ 88.3 µg/mL)	> 500 µM	> 500 µM	62.5 µM (≈ 22.1 µg/mL)	62.5 µM (≈ 22.1 µg/mL)	> 500 µM	> 500 µM	> 500 µM	> 500 µM	MIC ([2]; conclusions, incubation time not stated, read-out: antifungal activity against Trichophyton mentagrophytes (MIC)): 0.49 µM (≈ 0.173 µg/mL)
O=C(N[C@H](Cc1ccccc1)C(=O)Nc1cccc(Cl)c1)c1cc(Cl)ccc1O [8g, N-{(1S/R)-1-benzyl-2-[(3-chlorophenyl)amino]-2-oxoethyl}-5-chloro-2-hydroxybenzamide]	0.70 and 0.7066	125 µM (≈ 53.7 µg/mL)	125 µM (≈ 53.7 µg/mL)	31.2 µM (≈ 13.4 µg/mL)	125 µM (≈ 53.7 µg/mL)	62.5 µM (≈ 26.8 µg/mL)	62.5 µM (≈ 26.8 µg/mL)	> 500 µM	> 500 µM	32 µM (≈ 13.7 µg/mL)	32 µM (≈ 13.7 µg/mL)	> 500 µM	> 500 µM	62.5 µM (≈ 26.8 µg/mL)	62.5 µM (≈ 26.8 µg/mL)	> 500 µM	> 500 µM	> 500 µM	> 500 µM	–
C[C@@H](NC(=O)c1cc(Cl)ccc1O)C(=O)Nc1ccc(Cl)cc1 [8h]	0.4308	> 125 µM	> 125 µM	> 125 µM	> 125 µM	8 µM (≈ 2.83 µg/mL)	16 µM (≈ 5.65 µg/mL)	> 500 µM	> 500 µM	125 µM (≈ 44.2 µg/mL)	125 µM (≈ 44.2 µg/mL)	> 500 µM	> 500 µM	125 µM (≈ 44.2 µg/mL)	250 µM (≈ 88.3 µg/mL)	> 500 µM	> 500 µM	> 500 µM	> 500 µM	–
CC(C)[C@H](NC(=O)c1cc(Cl)ccc1O)C(=O)Nc1ccc(Cl)cc1 [8i]	0.6371	> 125 µM	> 125 µM	> 125 µM	> 125 µM	32 µM (≈ 12.2 µg/mL)	32 µM (≈ 12.2 µg/mL)	31.2 µM (≈ 11.9 µg/mL)	150 µM (≈ 57.2 µg/mL)	62.5 µM (≈ 23.8 µg/mL)	62.5 µM (≈ 23.8 µg/mL)	7.81 µM (≈ 2.98 µg/mL)	15.6 µM (≈ 5.96 µg/mL)	62.5 µM (≈ 23.8 µg/mL)	62.5 µM (≈ 23.8 µg/mL)	31.2 µM (≈ 11.9 µg/mL)	250 µM (≈ 95.3 µg/mL)	15.6 µM (≈ 5.96 µg/mL)	15.6 µM (≈ 5.96 µg/mL)	–
CC(C)[C@@H](NC(=O)c1cc(Cl)ccc1O)C(=O)Nc1ccc(Cl)cc1 [8j]	0.6125	62.5 µM (≈ 23.8 µg/mL)	62.5 µM (≈ 23.8 µg/mL)	> 125 µM	> 125 µM	32 µM (≈ 12.2 µg/mL)	32 µM (≈ 12.2 µg/mL)	250 µM (≈ 95.3 µg/mL)	500 µM (≈ 191 µg/mL)	62.5 µM (≈ 23.8 µg/mL)	62.5 µM (≈ 23.8 µg/mL)	7.81 µM (≈ 2.98 µg/mL)	7.81 µM (≈ 2.98 µg/mL)	62.5 µM (≈ 23.8 µg/mL)	62.5 µM (≈ 23.8 µg/mL)	31.2 µM (≈ 11.9 µg/mL)	125 µM (≈ 47.7 µg/mL)	7.81 µM (≈ 2.98 µg/mL)	7.81 µM (≈ 2.98 µg/mL)	MIC ([10]; read-out: activity against methicillin-resistant Staphylococcus aureus (MIC)): 7.81 µM (≈ 2.98 µg/mL)
O=C(CNC(=O)c1cc(Cl)ccc1O)Nc1ccc(Cl)c(Cl)c1 [8m]	0.4971	> 125 µM	> 125 µM	> 125 µM	> 125 µM	125 µM (≈ 46.7 µg/mL)	500 µM (≈ 187 µg/mL)	> 125 µM	> 125 µM	62.5 µM (≈ 23.4 µg/mL)	500 µM (≈ 187 µg/mL)	> 125 µM	> 125 µM	125 µM (≈ 46.7 µg/mL)	500 µM (≈ 187 µg/mL)	> 125 µM	> 125 µM	> 125 µM	> 125 µM	–
C[C@H](NC(=O)c1cc(Cl)ccc1O)C(=O)Nc1ccc(Cl)c(Cl)c1 [8n]	0.6698	> 125 µM	> 125 µM	> 125 µM	> 125 µM	32 µM (≈ 12.4 µg/mL)	32 µM (≈ 12.4 µg/mL)	> 500 µM	> 500 µM	32 µM (≈ 12.4 µg/mL)	62.5 µM (≈ 24.2 µg/mL)	> 500 µM	> 500 µM	62.5 µM (≈ 24.2 µg/mL)	500 µM (≈ 194 µg/mL)	> 500 µM	> 500 µM	> 500 µM	> 500 µM	–
